Values quoted from earlier work, collected in patent publication US11369672B2 (priority 2012, dated 2022).
In brackets after ≈: the same amount, converted by molar mass.

System: Mtb H37Rv

## CO[C@H]1/C=C/O[C@@]2(C)Oc3c(C)c(O)c4c(O)c(c(/C=N/N5CCN(C)CC5)c(O)c4c3C2=O)NC(=O)/C(C)=C\C=C\[C@H](C)[C@H](O)[C@@H](C)[C@@H](O)[C@@H](C)[C@H](OC(C)=O)[C@@H]1C [RIF, rifampin]
  minimum inhibitory concentration: 0.25 µM (≈ 0.206 µg/mL)
